Where two headings read alike, the source gives them in different places.
Tests used:
[1] = Cytotoxicity test on Vero cells (alamarBlue); type: cell-based, African green monkey
Method: (§1) Vero cells (kidney of African green monkey epithelial cell line) were cultured at 37 °C in the MEM liquid medium supplemented with 10% FBS (EuroClone SpA), 1% levoglutamine (EuroClone SpA), and 1% penicillin–streptomycin (EuroClone SpA). THP-1 cells (human leukemia monocytic cell line) were cultured at 37 °C in the RPMI 1640 (EuroClone SpA) liquid medium supplemented with 10% FBS (EuroClone SpA), 1% levoglutamine (EuroClone SpA), 1% penicillin–streptomycin, and mercaptoethanol (Gibco) 50 μM.
(§2) The cytotoxicity of the compounds was determined using mammalian kidney epithelial cells (Vero cell line) and human acute monocytic leukemia cell line (THP-1). Cells were seeded (10^5 cells mL^–1) on 96-well plates with the complete MEM medium and incubated with test compounds at 37 °C in a 5% CO2 incubator. After 72 h of incubation, 20 μL of the alamarBlue reagent was added to each well and incubated at 37 °C for 24 h. Reduction of resazurin to resorufin was evaluated after 24 h by absorbance measurement at the Multiskan ascent plate reader (Thermo Fisher Scientific Inc.,) at 550 and 630 nm. […] Each experiment was performed in duplicate.

[2] = tested on: L. donovani promastigotes (MHOM/NP/02/BPK282/0cl4); assay: Promastigote growth inhibition assay (alamarBlue); type: cell-based; conditions: Leishmania donovani, HOMEM with 10% FBS
[3] = tested on: L. donovani promastigotes; assay: Promastigote growth inhibition in the presence of an iron chelator (DFO or DFP), isobologram; type: cell-based, Leishmania donovani; conditions: for Interaction with the iron chelator DFO (isobologram, ΣFIC): synergism <0.5, antagonism >4.0, else additivity
Method: At first, we determined IC50 and CC50 values of the iron chelator DFO (187 and >400 μM, respectively). Then, the effect of the iron chelator presence on the bioactivity of the two compounds was studied by coincubating 2a and 3a with DFO at different concentrations. The variation of IC50 of the compounds in relation to the different doses of DFO was determined by the alamarBlue assay (Table 3), and the isobole technique was employed to depict the interactions of 2a and 3a with DFO (Figure 6).
The isobole technique was used for depicting synergistic or antagonistic interaction between the iron chelator and the two compounds on the parasite growth (Figure 6). Combinations are expressed as the sum of the fractional inhibitory concentrations (ΣFIC), and FIC values are defined as synergism (<0.5), antagonism (>4.0), and additivity (no interaction). The strength of synergism (or antagonism) is indicated by the degree of deviation from the line of additivity.
[…]. Each compound was added using a concentration range including the IC50 of each compound. Each experiment was performed in duplicate. The viability of the parasites was determined by the alamarBlue assay. The fractional inhibitory concentration (FIC; FIC = IC50 of the drug in the combination/IC50 of the drug when tested alone) of each compound was calculated and plotted as an isobologram.

[4] = tested on: L. donovani promastigotes (MHOM/NP/02/BPK282/0cl4); assay: Promastigote growth inhibition assay (alamarBlue); type: cell-based, Leishmania donovani; conditions: for IC50: Leishmania donovani; for Selectivity index (SI) = CC50/IC50: Vero CC50 / IC50 on promastigotes; for Activity against promastigotes under the bioassay conditions: 40 μM compound
Method: The bioactivity of the new tetrahydropyrans 3 was initially evaluated against the extracellular promastigote forms of L. donovani (MHOM/NP/02/BPK282/0cl4) as the reference strain, indicative of the leishmaniasis in the Old World. The results were expressed as IC50, i.e., the concentration of the product required to inhibit the parasite growth by 50%. When a compound could inhibit the promastigote growth, its cytotoxicity was also evaluated on Vero cells (Table 1) and on THP-1 cells (see the Supporting Information, Table S3) and the corresponding selectivity indexes (SIs) were calculated. The performance of each tetrahydropyran 3 was compared with that of the corresponding endoperoxide 2 (Table 1).
Promastigotes of a L. donovani reference strain (MHOM/NP/02/BPK282/0cl4) were maintained at 26 °C in a liquid custom-made medium, HOMEM Cat. no: 1140-082 (Gibco Thermo Fisher Scientific Inc., Waltham, USA), complete composition: S-MEM (Eagle) 1 × 1 liter pack, glucose (1–2 g), sodium bicarbonate (0.3 g), sodium pyruvate (0.11 g), p-aminobenzoic acid (1 mg), biotin (0.1 mg), HEPES (4.77–5.96 g), MEM amino acids (10 mL), MEM nonessential amino acids (10 mL), pH 7.5–7.6, supplemented with 20% fetal bovine serum (FBS, EuroClone SpA, Milan, Italy)[123] and 1% penicillin–streptomycin (EuroClone SpA).
To evaluate the efficacy of the compounds on the extracellular forms of L. donovani, promastigotes in their late log/stationary phase were seeded with the complete HOMEM medium at 10^6 cells mL^–1 in 96-well plates and incubated with tested compounds at a range concentration of 600–1.6 μM in a 26 °C incubator for 72 h. The antileishmanial drug amphotericin B was used as the positive control, and untreated promastigotes were the negative control. Each experiment was performed in duplicate. Stock solution of the compounds was 8 mM in DMSO. […] The alamarBlue assay includes a colorimetric growth indicator based on detection of metabolic activity. Specifically, the system incorporates an oxidation–reduction (REDOX) indicator that changes color in response to chemical reduction of the growth medium resulting from cell growth. The method monitors the reducing environment of proliferating cells; the cell-permeable resazurin is added (nonfluorescent form, blue color) and, upon entering cells, is reduced to resorufin (fluorescent form, red color) as a result of cellular metabolic activity. Evaluation was performed by adding 20 μL of alamarBlue and incubating at 26 °C for 24 h. The reducing environment was evaluated after 24 h by absorbance measurement at the Multiskan ascent plate reader (Thermo Fisher Scientific Inc.) at 550 and 630 nm.

[5] = tested on: intramacrophage amastigotes of L. donovani; assay: Amastigote growth inhibition assay in infected THP-1 cells (Giemsa, infectivity index); type: cell-based, Leishmania donovani; conditions: for IC50: Leishmania donovani, intracellular amastigotes in THP-1, 72 h, read-out: IC50 against amastigotes of L. donovani
Method: To evaluate the efficacy of the compounds on the intracellular form of L. donovani, human acute monocytic leukemia cell line (THP-1) was infected with L. donovani promastigotes. Cells were harvested and seeded in a 96-well plate (10^5 cells mL^–1) in the complete RPMI 1640 medium, and PMA (0.1 μM, Cayman Chemical Company, Ann Arbor, Michigan, USA) was added for obtaining maturation and cell adherence. Cells were incubated at 37 °C in a 5% CO2 incubator. After 48 h, the medium was replaced with the fresh medium containing stationary-phase promastigotes that were then phagocyted by monocytic cells and transformed into intracellular amastigotes. After 24 h of incubation, newly synthesized compounds were added and the plates were incubated at 37 °C in a 5% CO2 incubator for 72 h. After incubation, wells were washed, fixed, and stained with Giemsa. Staining was detected using a Nikon Eclipse E200 light microscope (Nikon, Tokyo, Japan). The infectivity index (% of infected macrophages × average number of amastigotes per macrophage) was determined by counting at least 100 cells in duplicate cultures.

[6] = Cytotoxicity test on THP-1 cells (alamarBlue); type: cell-based; conditions: human, THP-1 cells (acute monocytic leukemia cell line); CSV supplement; read-out: CC50 against human acute monocytic leukemia cell line (THP-1)
Method: as §1, §2
Cytotoxicity in THP-1 cell line
We performed additional cytotoxicity tests employing THP-1 cell line. We also calculated the
corresponding selectivity indexes, as the ratio between CC50 of THP-1 cell line and IC50 on amastigotes
THP-1 cells than on VERO cells; thus showing a not significant variance of selectivity index.
Table S3. Inhibitory activity of tetrahydropyrans 3 and endoperoxides 2 against amastigotes of L.
donovani, cytotoxicity in human acute monocytic leukemia cell line (THP-1) and selectivity index (SI).
Tetrahydropyran IC50 CC50 Endoperoxide IC50 CC50
a (µM)b (µM)c a (µM)b (µM)c
a Compounds tested as racemates. b IC50 represents the concentration of a compound that causes 50% growth inhibition.
Results represent the mean (± standard deviation, SD) of three independent experiments performed in duplicate. c CC50
represents 50% cytotoxic concentration on THP-1 cells. d Selectivity index (SI) = CC50/IC50. […]

[7] = tested on: promastigotes of Leishmania donovani strains; parameters: method as in earlier work; conditions: Figure 1; read-out: IC50 on promastigotes of L. donovani strains; cited from earlier work
[8] = chlorocebus sabaeus, Vero cells (kidney epithelial cell line), 72 h, alamarBlue, read-out: CC50 (50% cytotoxic concentration) on Vero cells
[9] = 72 h, alamarBlue, HOMEM 20% FBS, compounds as racemates, read-out: IC50 (concentration causing 50% growth inhibition) against promastigotes of L. donovani
[10] = THP-1 CC50 / IC50 on amastigotes
[11] = Vero CC50 / IC50 on amastigotes

SMILES | CC50 at 72 h [1, 8] | IC50 [4, 9] | Selectivity index (SI) = CC50/IC50 [4] | IC50 [5] | Selectivity index (SI) = CC50/IC50 [5, 10] | Selectivity index (SI) = CC50/IC50 [5, 11] | CC50 at 72 h [6] | other results
CO[C@]1(C)OCC(c2ccccc2)(c2ccccc2)C[C@@H]1CNCCCn1ccnc1 (racemic) [3b, 3-(1H-Imidazol-1-yl)-N-((2-methoxy-2-methyl-5,5-diphenyltetrahydro-2H-pyran-3-yl)methyl)propan-1-amine] | 42.3 ± 3.2 µM | 5.8 ± 0.9 µM | 7.3 | 3.2 ± 0.9 µM | 15.6 | 13.2 | 50 µM | IC50 [2]: 3.2 µM; Interaction with the iron chelator DFO (isobologram, ΣFIC) [3]: additive effects
CO[C@]1(C)OCC(C)(C)C[C@@H]1CNCCCn1ccnc1 (racemic) [3c, 3-(1H-Imidazol-1-yl)-N-((2-methoxy-2,5,5-trimethyltetrahydro-2H-pyran-3-yl)methyl)propan-1-amine] |  | > 40 µM |  |  |  |  |  | Activity against promastigotes under the bioassay conditions [4]: inactive
CO[C@]1(C)OCC(c2ccccc2)(c2ccccc2)C[C@@H]1COCc1cn(CCC[P+](c2ccccc2)(c2ccccc2)c2ccccc2)nn1.[Br-] (racemic) [3d, (3-(4-(((2-Methoxy-2-methyl-5,5-diphenyltetrahydro-2H-pyran-3-yl)methoxy)methyl)-1H-1,2,3-triazol-1-yl)propyl)triphenylphosphonium bromide] | 92 ± 8.7 µM | 18 ± 3 µM | 5.1 | 2.8 ± 0.7 µM | 22.9 | 32.8 | 64.1 µM | 
CCCCC1(CCCC)CO[C@@](C)(OC)[C@@H](CNCCCCNc2c3ccc(Cl)cc3nc3ccc(OC)cc23)C1 (racemic) [3e, N^1-(6-Chloro-2-methoxyacridin-9-yl)-N^4-((5,5-dibutyl-2-methoxy-2-methyltetrahydro-2H-pyran-3-yl)methyl)butane-1,4-diamine] | 1.2 µM | 0.9 µM | 1.3 |  |  |  |  | 
CO[C@]1(C)OOC(c2ccccc2)(c2ccccc2)C[C@@H]1CNCCCn1ccnc1 [2b] | 49 ± 2.7 µM | 6.3 ± 1.1 µM | 7.7 | 5 ± 1 µM | 10.5 | 9.8 | 52.5 µM | IC50 [2]: 1.2 µM; IC50 ([3]; Leishmania donovani, no DFO, read-out: IC50 against promastigotes, absence of DFO (Table S4)): 7.5 µM; Interaction with the iron chelator DFO (isobologram, ΣFIC) [3]: additive effects
CO[C@]1(C)OOC(C)(C)C[C@@H]1CNCCCn1ccnc1 [2c] |  | > 40 µM |  |  |  |  |  | Activity against promastigotes under the bioassay conditions [4]: inactive
Br.CO[C@]1(C)OOC(c2ccccc2)(c2ccccc2)C[C@@H]1COCc1cn(CCC[P+](c2ccccc2)(c2ccccc2)c2ccccc2)nn1 [2d] | 238 ± 36.8 µM | 13.8 ± 2.2 µM | 17.3 | 16.5 ± 1.5 µM | 8.6 | 14.4 | 142 µM | 
CCCCC1(CCCC)C[C@H](CNCCCCNc2c3ccc(Cl)cc3nc3ccc(OC)cc23)[C@](C)(OC)OO1 [2e, N^1-(6-Chloro-2-methoxyacridin-9-yl)-N^4-((6,6-dibutyl-3-methoxy-3-methyl-1,2-dioxan-4-yl)methyl)butane-1,4-diamine] | 1.3 µM | 0.5 µM | 2.6 |  |  |  |  | 
CCCCC1(CCCC)C[C@H](CNCCCCNc2ccc([N+](=O)[O-])c3nonc23)[C@](C)(OC)OO1 [2f, N^1-((6,6-Dibutyl-3-methoxy-3-methyl-1,2-dioxan-4-yl)methyl)-N^4-(7-nitrobenzo[c][1,2,5]oxadiazol-4-yl)butane-1,4-diamine] | 12.1 µM | 11.4 µM | 1.1 |  |  |  |  | 
C[C@H]1[C@H](OC(=O)CCC(=O)O)O[C@@H]2O[C@@]3(C)CC[C@H]4[C@H](C)CC[C@@H]1[C@@]24OO3 [Artesunate, reference compound] |  | > 40 µM |  | > 40 µM |  |  |  | 
CC(=O)N(O)CCCCCNC(=O)CCC(=O)N(O)CCCCCNC(=O)CCC(=O)N(O)CCCCCN [DFO, desferrioxamine, reference compound] |  |  |  |  |  |  |  | CC50 at 72 h ([1]; cell line not given, read-out: CC50 of the iron chelator): > 400 µM; IC50 ([4]; 72 h, read-out: IC50 (concentration causing 50% growth inhibition) against promastigotes of L. donovani): 187 µM
Cc1c(O)c(=O)ccn1C [DFP, deferiprone, reference compound] |  |  |  |  |  |  |  | CC50 at 72 h ([1]; cell line not given, read-out: CC50 of the iron chelator DFP): 143 µM; IC50 ([4]; read-out: IC50 of the iron chelator DFP): 219 µM
CCCCCCCCCCCCCCCCOP(=O)([O-])OCC[N+](C)(C)C [Miltefosine] |  |  |  |  |  |  |  | IC50 [7]: 1.9 to 68.1 µM
